Measurements as given in US5468758A, “Crystalline forms of endo-2,3-dihydro-N-(8-methyl)-8-azabicyclo[3.2.1]oct-3-yl)-2-oxo-1H-benz imidazole-1-carboxamides” (Boehringer Ingelheim Italia S.p.A., priority 1992, dated 1995).
Counter-ions that a name gives are not always drawn.

Key:
Format in all cases: physicochemical
[1] = Moisture sorption/desorption studies (hygrostat, storage at different temperatures and relative humidity); parameters: water content (Table VI): unit not given here; conditions: for water content (Table VII): 11.2% RH, % on the weight of compound 1b
Protocol: The determination of the sorption isotherms was carried out in a hygrostat.
At suitable intervals, the sample was weighed by means of a sample balance. The atmosphere in the hygrostat and therefore around the sample of compound 1a (1b) and 2a (2b) was conditioned and kept by a saturated solutions of a suitable salt:
Na Cl saturated solution 75.3% RH/25° C. 74.8% RH/37° C.
KNO3 saturated solution 93.7% RH/25° C. 90.0% RH/37° C.
At the end of the experiment, after completing the hysteresis, that is the adsorption--desorption cycle of humidity, the compound was assayed for the title and degradation products by TLC and HPLC, the physical state by DSC and water content by TGA.

[2] = Milling studies (FRITSCH Pulverisette 14 Rotor Speed Mill)
Protocol: The milling process was performed by the FRITSCH Pulverisette 14 Rotor Speed Mill supplied with circular sieve stainless steel with trapezoidal 0.080 mm diameter openings. The samples were passed through the mill twice at 20.000 rpm motor speed. The sample is assayed for title and degradation products by TLC and HPLC, physical state by DSC, water content by TGA, particle size distribution by Mercury Instrusion Porosimetry. The mi 11ed compounds are formulated in capsules and tablets at very low dose level (0.5 mg) by direct mixing and direct compression manufacturing method, respectively.

[3] = Accelerated stability tests in tablets and capsules
Source text: (§1) Drug stability in these final compositions may be measured in accelerated stability tests or in long term real time stability tests. In accelerated stability tests, the above pharmaceutical compositions are exposed at high temperatures at different degrees of relative humidity for a period of time. Such tests are considered to be indicative of the stability of the composition at normal conditions. In long term real time stability studies the final compositions are exposed to normal conditions of storage at ambient temperatures at different degrees of relative humidity.
(*)according to H. Leven Berger Pharm. Act. Helv. 50 (1975) 88-91 it is
equivalent to 2 years storage at room temperature. Tablets and capsules
are packaged in PVC/PVDC blister with aluminium foil.
(*)according to "Guidelines for stability studies for Human Drugs and
Biologics" (1987) (USA/FDA) it is equivalent to 2 years at room
temperature. Tablets and capsules are packaged in PVC/PVDC blister with […]

[4] = Water loss on desiccation under vacuum; conditions: between room temperature and 60° C. under vacuum, most preferably 40° C., 0.1 mm Hg, 24 hours; in words
Protocol: Compounds 2a and 2b may be prepared by dissolving the compounds 1a and 1b, as free base, in a hot aqueous solvent, preferably a hot aqueous alkanol, by adding the required amount of gaseous hydrogen chloride, filtering the resulting solution and letting it cool to room temperature. In a preferred embodiment of the process according to the invention, compound 2a is prepared by using, as an hot aqueous alkanol, hot 85% aqueous ethanol. The crystals of compound 2a may be collected by vacuum filtration and are washed with a small amount of aqueous ethanol. In a preferred embodiment of the process according to the invention, compound 2b is prepared by using, as an hot aqueous alkanol, hot 95% aqueous isopropanol. The crystals of compound 2b may be collected by vacuum filtration and are washed with a small amount of aqueous isopropanol. […] Water content may be measured by usual techniques such as the Karl Fischer test. Alternatively, compounds 2a and 2b may be conveniently prepared by dissolving the anhydrous form of compounds 1a and 1b, as hydrochloride, in hot aqueous ethanol, preferably 85% ethanol (respectively in hot aqueous isopropanol, preferably 95% isopropanol) and allowing to cool the solution at room temperature; crystals of compound 2 a (respectively 2b), separated from the cooled solution, are collected by vacuum filtration and manipulated as previously described. […]

[5] = Long-term real time stability tests in tablets and capsules
Source text: as §1
Tablets and capsules are packaged in PVC/PVDC blister with aluminium foil

Structure (SMILES): CCn1c(=O)n(C(=O)N[C@H]2C[C@H]3CC[C@@H](C2)N3C)c2ccccc21 [Compound 2b, Endo-3-ethyl-2,3-dihydro-N-(8-methyl-8-azabicyclo-[3.2.1]oct-3-yl)-2-oxo-1H-benzimidazole-1-carboxamide, hydrochloride monohydrate]
- stability in condition of storage [1]: stable
- water content in conditions of extreme dryness ([1]; 11 RH, 37° C., in words): not affected
- water content (Table VII) ([1]; 37° C., 1 h): 5.00%
- water content (Table VII) ([1]; 37° C., 2 h): 4.85%
- water content (Table VII) ([1]; 37° C., 4 h): 4.80%
- water content (Table VII) ([1]; 37° C., 6 h): 4.70%
- water content (Table VII) ([1]; 37° C., 6 days): 4.70%
- water content (Table VII) ([1]; 37° C., time 0): 5.02%
- water content (Table VI) ([1]; 37° C., 49.2% RH, 2 h, hydrochloride monohydrate): 5.03
- water content (Table VI) ([1]; 37° C., 49.2% RH, 4 h, hydrochloride monohydrate): 5.04
- water content (Table VI) ([1]; 37° C., 49.2% RH, 6 h, hydrochloride monohydrate): 5.00
- water content (Table VI) ([1]; 37° C., 49.2% RH, 1 d, hydrochloride monohydrate): 5.00
- water content (Table VI) ([1]; 37° C., 49.2% RH, 4 d, hydrochloride monohydrate): 5.04
- water content (Table VI) ([1]; 37° C., 49.2% RH, 10 d, hydrochloride monohydrate): 4.95
- water content (Table VI) ([1]; 37° C., 49.2% RH, 30 d, hydrochloride monohydrate): 5.02
- water content (Table VI) ([1]; 37° C., 49.2% RH, time 0, hydrochloride monohydrate): 5.00
- water content (Table VI) ([1]; 37° C., 74.8% RH, 2 h, hydrochloride monohydrate): 5.05
- water content (Table VI) ([1]; 37° C., 74.8% RH, 4 h, hydrochloride monohydrate): 5.05
- water content (Table VI) ([1]; 37° C., 74.8% RH, 6 h, hydrochloride monohydrate): 5.07
- water content (Table VI) ([1]; 37° C., 74.8% RH, 1 d, hydrochloride monohydrate): 5.07
- water content (Table VI) ([1]; 37° C., 74.8% RH, 4 d, hydrochloride monohydrate): 5.07
- water content (Table VI) ([1]; 37° C., 74.8% RH, 10 d, hydrochloride monohydrate): 4.97
- water content (Table VI) ([1]; 37° C., 74.8% RH, 30 d, hydrochloride monohydrate): 5.00
- water content (Table VI) ([1]; 37° C., 74.8% RH, time 0, hydrochloride monohydrate): 5.00
- moisture absorption ([1]; different temperatures and relative humidity, in words, hydrochloride monohydrate): do not absorb moisture
- particle size reduction (milling efficiency) ([2]; Mercury Porosimetry Analysis, in words): same rank order
- humidity content ([2]; after milling, hydrochloride monohydrate): 4.8%
- stability in tablets and capsules [3]: better stability
- loss of water content on desiccation [4]: without any appreciable loss of water content
- stability in tablets and capsules [5]: better stability
